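Five concentrations, 48 hours, 96-well plates. Abbreviation: GI50, concentration required for 50% inhibition of growth. TGI denotes the concentration required for complete inhibition of growth.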
Experiments:
Assay in all cases: DTP human tumour cell line panel, 48 h
NCI-H226 lung = system: NCI-H226 lung
COLO 205 colon = system: COLO 205 colon
HCT-116 colon = system: HCT-116 colon
UACC-62 melanoma = system: UACC-62 melanoma
HS 578T breast = system: HS 578T breast
A549 NSCLC = system: A549 NSCLC
RXF 393 renal = system: RXF 393 renal
NCI-H522 lung = system: NCI-H522 lung
NCI-H23 lung = system: NCI-H23 lung
HT29 colon = system: HT29 colon

Structure (SMILES) | TGI (NCI-H226 lung) | TGI (COLO 205 colon) | TGI (HCT-116 colon) | TGI (UACC-62 melanoma) | TGI (HS 578T breast) | TGI (A549 NSCLC) | TGI (RXF 393 renal) | TGI (NCI-H522 lung) | TGI (NCI-H23 lung) | TGI (HT29 colon) | GI50 (NCI-H226 lung) | GI50 (COLO 205 colon) | GI50 (HCT-116 colon) | GI50 (UACC-62 melanoma) | GI50 (HS 578T breast) | GI50 (A549 NSCLC) | GI50 (RXF 393 renal) | GI50 (NCI-H522 lung) | GI50 (NCI-H23 lung) | GI50 (HT29 colon)
O=c1c2ccccc2oc2c1ccc1ncccc12 | 38.9 µM | 94.4 µM | 45.2 µM | 73.6 µM | 34.8 µM | 22.2 µM | 44.6 µM | 59.1 µM | > 100 µM | > 100 µM | – | – | – | – | – | – | – | – | – | –
Cc1cccc2c1C(=O)C1(Cc3ccccc3C1=O)C2 (stereo not given) | > 100 µM | > 100 µM | > 100 µM | > 100 µM | > 100 µM | > 100 µM | > 100 µM | > 100 µM | > 100 µM | > 100 µM | – | – | – | – | – | – | – | – | – | –
C/C(O)=C/c1nc2ccccc2nc1/C=C(/C)O | 61.3 µM | 47.5 µM | 39.3 µM | 45.4 µM | 67.5 µM | 51.3 µM | 65.2 µM | 27.7 µM | > 100 µM | 43.3 µM | – | – | – | – | – | – | – | – | – | –
CCN(CC)CCCCCCCCNc1c2ccc(Cl)cc2nc2ccc(OC)cc12 | 3.74 µM | 2.88 µM | 3.14 µM | 3.22 µM | > 100 µM | 3.62 µM | 2.09 µM | 3.81 µM | 7.25 µM | 2.25 µM | 1.74 µM | 1.43 µM | 1.36 µM | 1.8 µM | 2.82 µM | 1.56 µM | 0.763 µM | 1.8 µM | 2.28 µM | 0.597 µM
